Like-named read-outs stand apart in the source and are kept apart here.
Target: human activated kallikrein enzyme (Homo sapiens (Human), UniProt P03952)
Assay: Plasma kallikrein inhibition assay with fluorogenic peptide substrate, 500 pM activated kallikrein format
Type: biochemical
Conditions: read-out: Primary Dose Response Assay: Average EC50
Procedure: Example compounds were evaluated for inhibition of the human activated kallikrein enzyme in two formats of an assay employing a fluorogenic peptide substrate. In one assay format, the concentrations of reagents were as follows: 20 mM Tris pH 7.5, 1 mM EDTA, 150 mM sodium chloride, 0.1% PEG-400, 0.1% Triton X-100, […], 300 uM Pro-Phe-Arg-7-amido-4-methylcoumarin substrate. Prior to reaction initiation with substrate, enzyme and inhibitors were preincubated for 30 min at RT. After initiation with substrate, reactions were incubated for 10 min at RT and fluorescence emission at 460 nm from 380 nm excitation measured with a microplate reader. In another assay format, the concentrations of reagents were as follows: 20 mM Tris pH 7.5, 1 mM EDTA, 150 mM sodium chloride, 0.1% PEG-400, 0.1% Triton X-100, 5 pM activated kallikrein enzyme, 300 uM Pro-Phe-Arg-7-amido-4-methylcoumarin substrate. Prior to reaction initiation with substrate, enzyme and inhibitors were preincubated for 30 min at RT. After initiation with substrate, reactions were incubated for 18 h at RT and fluorescence emission at 460 nm from 380 nm excitation measured with a microplate reader.
Table II provides the results of the assay in the format with 500 pM activated kallikrein assay.
Table III provides comparative plasma kallikrein inhibition potency in the assay format with 500 pM activated kallikrein assay (described in detail in the preceding example).

[1] = 500 pM activated kallikrein, 300 uM Pro-Phe-Arg-7-amido-4-methylcoumarin substrate, 30 min preincubation, 10 min reaction at RT

Chain of human activated kallikrein enzyme (P03952 391-638): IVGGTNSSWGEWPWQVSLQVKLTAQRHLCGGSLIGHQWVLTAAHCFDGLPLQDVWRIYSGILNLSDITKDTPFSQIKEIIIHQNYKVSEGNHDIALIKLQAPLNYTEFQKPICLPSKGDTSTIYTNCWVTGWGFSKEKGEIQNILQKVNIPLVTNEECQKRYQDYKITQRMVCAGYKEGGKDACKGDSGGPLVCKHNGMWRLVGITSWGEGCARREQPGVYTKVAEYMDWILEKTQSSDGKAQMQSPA
Chain of human activated kallikrein enzyme (P03952 20-390 partner): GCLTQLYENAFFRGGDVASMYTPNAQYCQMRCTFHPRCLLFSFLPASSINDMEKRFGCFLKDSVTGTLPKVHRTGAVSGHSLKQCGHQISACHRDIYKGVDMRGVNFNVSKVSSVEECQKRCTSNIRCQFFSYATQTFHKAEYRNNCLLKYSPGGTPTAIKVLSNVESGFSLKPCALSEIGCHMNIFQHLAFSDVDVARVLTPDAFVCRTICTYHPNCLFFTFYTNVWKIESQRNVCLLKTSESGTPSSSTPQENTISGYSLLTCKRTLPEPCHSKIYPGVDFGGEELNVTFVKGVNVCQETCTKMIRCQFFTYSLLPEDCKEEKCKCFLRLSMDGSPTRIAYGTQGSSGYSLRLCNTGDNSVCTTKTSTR

| SMILES | EC50 [1] | EC50 (comparative compounds (Table III), 500 pM activated kallikrein format) |
| --- | --- | --- |
| COc1ccc(-n2cnnn2)c(CNC(=O)c2cn(Cc3cn4cc(C5CC5)ccc4n3)cn2)c1F [Example I-55, 1-((6-cyclopropylimidazo[1,2-a]pyridin-2-yl)methyl)-N-(2-fluoro-3-methoxy-6-(1H-tetrazol-1-yl)benzyl)-1H-imidazole-4-carboxamide] | ≤ 1 nM |  |
| Cc1cc(N)nc(C)c1CNC(=O)c1cn(Cc2cn3cc(C4CC4)ccc3n2)nn1 [Example I-26, N-((6-amino-2,4-dimethylpyridin-3-yl)methyl)-1-((6-cyclopropylimidazo[1,2-a]pyridin-2-yl)methyl)-1H-1,2,3-triazole-4-carboxamide] | ≤ 1 nM |  |
| COc1ccc(-c2c[nH]nn2)c(CNC(=O)c2cn(Cc3cn4cc(C5CC5)ccc4n3)nn2)c1F [Example I-49, 1-((6-cyclopropylimidazo[1,2-a]pyridin-2-yl)methyl)-N-(2-fluor-3-methoxy-6-(1H-1,2,3-triazol-4-yl)benzyl)-1H-1,2,3-triazole-4-carboxamide] | 10 to 100 nM |  |
| COc1ccc(Br)c(CNC(=O)c2cn(Cc3cn4cc(C5CC5)ccc4n3)nn2)c1F [Example I-102, N-(6-bromo-2-fluoro-3-methoxybenzyl)-1-((6-cyclopropylimidazo[1,2-a]pyridin-2-yl)methyl)-1H-1,2,3-triazole-4-carboxamide] | 10 to 100 nM |  |
| Cc1cc(C(=N)N)cc(C)c1CNS(=O)(=O)c1cnn(Cc2cn3cc(C4CC4)ccc3n2)c1 [Example I-39, 4-(((1-((6-cyclopropylimidazo[1,2-a]pyridin-2-yl)methyl)-1H-pyrazole)-4-sulfonamido)methyl)-3,5-dimethylbenzimidamide] | 10 to 100 nM |  |
| COc1ccc(-n2cnnn2)c(CNC(=O)c2cn(Cc3cn4cc(C5CC5)cc(C(F)(F)F)c4n3)nn2)c1F [Example I-93, 1-((6-cyclopropyl-8-(trifluoromethyl)imidazo[1,2-a]pyridin-2-yl)methyl)-N-(2-fluoro-3-methoxy-6-(1H-tetrazol-1-yl)benzyl)-1H-1,2,3-triazole-4-carboxamide] | ≤ 1 nM |  |
| COc1ccc(-n2cnnn2)c(CNS(=O)(=O)c2cn(Cc3cn4cc(C5CC5)ccc4n3)nn2)c1F [Example I-40, 1-((6-cyclopropylimidazo[1,2-a]pyridin-2-yl)methyl)-N-(2-fluoro-3-methoxy-6-(1H-tetrazol-1-yl)benzyl)-1H-1,2,3-triazole-4-sulfonamide] | 10 to 100 nM |  |
| CCOC(=O)C(C)(C)Cc1cc(C2CC2)cn2cc(Cn3cc(C(=O)NCc4c(-n5cnnn5)ccc(OC)c4F)nn3)nc12 [Example I-85, ethyl 3-(6-cyclopropyl-2-((4-((2-fluoro-3-methoxy-6-(1H-tetrazol-1-yl)benzyl)carbamoyl)-1H-1,2,3-triazol-1-yl)methyl)imidazo[1,2-a]pyridin-8-yl)-2,2-dimethylpropanoate] | ≤ 1 nM |  |
| O=S(=O)(NCCc1ccc(Cl)cc1)c1cnn(Cc2cn3cc(C4CC4)ccc3n2)c1 [Example I-35, N-(4-chlorophenethyl)-1-((6-cyclopropylimidazo[1,2-a]pyridin-2-yl)methyl)-1H-pyrazole-4-sulfonamide] | > 7100 nM |  |
| COc1ccc(-n2cnnn2)c(CNC(=O)c2nnn(Cc3cn4cc(C5CC5)cc(F)c4n3)n2)c1F [Example I-69, 2-((6-cyclopropyl-8-fluoroimidazo[1,2-a]pyridin-2-yl)methyl)-N-(2-fluoro-3-methoxy-6-(1H-tetrazol-1-yl)benzyl)-2H-tetrazole-5-carboxamide] | ≤ 1 nM |  |
| COc1ccc(F)c(CNC(=O)c2cn(Cc3cn4cc(C5CC5)cc(CC(C)(C)C#N)c4n3)nn2)c1F [Example I-12, 1-((8-(2-cyano-2-methylpropyl)-6-cyclopropylimidazo[1,2-a]pyridin-2-yl)methyl)-N-(2,6-difluoro-3-methoxybenzyl)-1H-1,2,3-triazole-4-carboxamide] | 1 to 10 nM |  |
| COc1ccnc(CNC(=O)c2cnc3n2C(c2cn4cc(C5CC5)ccc4n2)CC3)c1F (stereo not shown) [Example I-6, 5-(6-cyclopropylimidazo[1,2-a]pyridin-2-yl)-N-((3-fluoro-4-methoxypyridin-2-yl)methyl)-6,7-dihydro-5H-pyrrolo[1,2-a]imidazole-3-carboxamide] | > 7100 nM |  |
| COC(=O)c1ncc(-c2ccc(OC)c(F)c2CNC(=O)c2cn(Cc3cn4cc(C5CC5)ccc4n3)nn2)cn1 [Example I-75, Methyl 5-(2-((1-((6-cyclopropylimidazo[1,2-a]pyridin-2-yl)methyl)-1H-1,2,3-triazole-4-carboxamido)methyl)-3-fluoro-4-methoxyphenyl)pyrimidine-2-carboxylate] | 1 to 10 nM |  |

The next lines start with the values.

| EC50 [1] | EC50 (comparative compounds (Table III), 500 pM activated kallikrein format) | SMILES |
| --- | --- | --- |
| 1 to 10 nM |  | COc1ccc(C#N)c(CNC(=O)c2cnn(Cc3cn4cc(C5CC5)ccc4n3)c2)c1F [Example I-119, N-(6-cyano-2-fluoro-3-methoxybenzyl)-1-((6-cyclopropylimidazo[1,2-a]pyridin-2-yl)methyl)-1H-pyrazole-4-carboxamide] |
| > 7100 nM |  | COc1ccc(-c2c[nH]nn2)c(CNC(=O)c2cn(Cc3cn4cc(C5CC5)ccc4n3)nn2)c1F [Example I-50] |
| 100 to 2000 nM |  | O=C(NCc1cccc(Cl)c1)c1cnn(Cc2cn3cc(C4CC4)ccc3n2)c1 [Example I-121, N-(3-chlorobenzyl)-1-((6-cyclopropylimidazo[1,2-a]pyridin-2-yl)methyl)-1H-pyrazole-4-carboxamide] |
| 100 to 2000 nM |  | O=C(NCc1c(N2CC3(COC3)C2)ccc(Cl)c1F)c1cnn(Cc2cn3cc(C4CC4)ccc3n2)c1 [Example I-114, N-(3-chloro-2-fluoro-6-(2-oxa-6-azaspiro[3.3]heptan-6-yl)benzyl)-1-((6-cyclopropylimidazo[1,2-a]pyridin-2-yl)methyl)-1H-pyrazole-4-carboxamide] |
| 100 to 2000 nM |  | Nc1ncc(CNC(=O)c2cn(Cc3cn4cc(C5CC5)ccc4n3)nn2)s1 [Example I-18, N-((2-aminothiazol-5-yl)methyl)-1-((6-cyclopropylimidazo[1,2-a]pyridin-2-yl)methyl)-1H-1,2,3-triazole-4-carboxamide] |
| ≤ 1 nM |  | Cc1cc(C(=N)N)cc(C)c1CNC(=O)c1cn(Cc2cn3cc(C4CC4)cc(C(=O)O)c3n2)nn1 [Example I-111, 2-((4-((4-carbamimidoyl-2,6-dimethylbenzyl)carbamoyl)-1H-1,2,3-triazol-1-yl)methyl)-6-cyclopropylimidazo[1,2-a]pyridine-8-carboxylic Acid] |
| 10 to 100 nM |  | COc1ccc(-n2cnnn2)c(CNC(=O)c2cn3c(n2)OCC3c2cn3cc(C4CC4)ccc3n2)c1F (stereo not shown) [Example I-9, 3-(6-cyclopropylimidazo[1,2-a]pyridin-2-yl)-N-(2-fluoro-3-methoxy-6-(1H-tetrazol-1-yl)benzyl)-2,3-dihydroimidazo[2,1-b]oxazole-6-carboxamide] |
| > 7100 nM |  | COc1ccc(-n2cnnn2)c(CNC(=O)c2cncn2Cc2cn3cc(C4CC4)ccc3n2)c1F [Example I-59, 1-((6-cyclopropylimidazo[1,2-a]pyridin-2-yl)methyl)-N-(2-fluoro-3-methoxy-6-(1H-tetrazol-1-yl)benzyl)-1H-imidazole-5-carboxamide] |
| 1 to 10 nM |  | COc1ccc(S(=O)(=O)N(C)C)c(CNC(=O)c2cn(Cc3cn4cc(C5CC5)ccc4n3)nn2)c1F [Example I-57, 1-((6-cyclopropylimidazo[1,2-a]pyridin-2-yl)methyl)-N-(6-(N,N-dimethylsulfamoyl)-2-fluoro-3-methoxybenzyl)-1H-1,2,3-triazole-4-carboxamide] |
| 10 to 100 nM |  | COc1ccc(F)c(CNC(=O)c2cn(Cc3cn4cc(C5CC5)ccc4n3)nn2)c1F [Example I-64, 1-((6-cyclopropylimidazo[1,2-a]pyridin-2-yl)methyl)-N-(2,6-difluoro-3-methoxybenzyl)-1H-1,2,3-triazole-4-carboxamide] |
| ≤ 1 nM |  | COc1ccc(-n2cnnn2)c(CNC(=O)c2cn(Cc3cn4cc(C5CC5)cc(CN)c4n3)nn2)c1F [Example I-25, 1-((8-(aminomethyl)-6-cyclopropylimidazo[1,2-a]pyridin-2-yl)methyl)-N-(2-fluoro-3-methoxy-6-(1H-tetrazol-1-yl)benzyl)-1H-1,2,3-triazole-4-carboxamide] |
| 1 to 10 nM |  | N=C(N)c1ccc(CNS(=O)(=O)c2cnn(Cc3cn4cc(C5CC5)ccc4n3)c2)cc1 [Example I-32, 4-(((1-((6-cyclopropylimidazo[1,2-a]pyridin-2-yl)methyl)-1H-pyrazole)-4-sulfonamido)methyl)benzimidamide] |
| ≤ 1 nM |  | Cc1cc2c(c(N)n1)CCC2NC(=O)c1cn(Cc2cn3cc(C4CC4)ccc3n2)nn1 (stereo not shown) [Example I-16, N-(1-amino-3-methyl-6,7-dihydro-5H-cyclopenta[c]pyridin-5-yl)-1-((6-cyclopropylimidazo[1,2-a]pyridin-2-yl)methyl)-1H-1,2,3-triazole-4-carboxamide] |
| 100 to 2000 nM |  | NCc1cc2c(cn1)N(C(=O)c1cn(Cc3cn4cc(C5CC5)ccc4n3)nn1)CC2 [Example I-147, (5-(aminomethyl)-2,3-dihydro-1H-pyrrolo[2,3-c]pyridin-1-yl)(1-((6-cyclopropylimidazo[1,2-a]pyridin-2-yl)methyl)-1H-1,2,3-triazol-4-yl)methanone] |
|  | 10 to 100 nM | O=C(NCc1ncn2ccc(Cl)c(F)c12)c1cn(Cc2ccc3nccnc3c2)nn1 |

— patent US11787796B2, “Plasma Kallikrein inhibitors and uses thereof” (Takeda Pharmaceutical Company Limited, priority 2019, dated 2023)
